Laboratory results as given in patent US7351720B2, “N-ureidoalkyl-piperidines as modulators of chemokine receptor activity” (Bristol-Myers Squibb Company, priority 2003, dated 2008).

- melting point: 191 °C
SMILES: CC(=O)N(C)[C@@H]1CC[C@@H](NC(=O)Nc2nc(C)cs2)[C@H](CN2CCC[C@@H](Cc3ccc(F)cc3)C2)C1 [Example 1, N-{(3S,4R)-3-[3S-(4-Fluorobenzyl)-piperidin-1-ylmethyl]-4-[3-(4-methyl-thiazol-2-yl)-ureido]-(R)-cyclohexyl}-N-methyl-acetamide]
